In this test the target is T1, crosslinked smooth muscle actomyosin (chicken gizzard smooth muscle myosin subfragment-1 crosslinked to cardiac or skeletal actin) (Gallus gallus, UniProt P10587).
T1 construct: chicken gizzard smooth muscle myosin subfragment-1; from tissue; host or cells: chicken gizzard
The test is described as follows: Lead optimization pyruvate kinase/horseradish peroxidase/pyruvate oxidase-coupled ATPase assay (compound dose response). The test is classed as biochemical. Particulars: read-out: IC50 Arithmetic Mean. The gist of the method:
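The ATPase used chicken gizzard smooth muscle myosin S1 chemically crosslinked to cardiac or skeletal actin, titrated to a set hydrolysis rate. It was coupled via pyruvate kinase/pyruvate oxidase/HRP in 12 mM K-PIPES pH 7.00 (22 °C) with 0.15 mM ATP, 2 mM MgCl2, 100 mM KCl and 0.1 mM Amplex Red. Fluorescence was read at ex 480/em 615 nm, and IC50 came from a 4-parameter fit.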

As to `O=C(Nc1ccccc1Cl)OCC1(C(=O)NCc2ccccc2Cl)CCOCC1` [(4-{[N-(2-chlorophenyl)carbamoyloxy]methyl}(2H-3,4,5,6-tetrahydropyran-4-yl))-N-[(2-chlorophenyl)methyl]carboxamide], the IC50 was 17.3 µM.

Take `Cc1ccc(NC(=O)OCC2(C(=O)NCc3ccccc3Cl)CCOCC2)cc1C` [(4-{[N-(3,4-dimethylphenyl)carbamoyloxy]methyl}(2H-3,4,5,6-tetrahydropyran-4-yl))-N-[(2-chlorophenyl)methyl]carboxamide]: the IC50 turned out to be 2.34 µM.

In the case of `O=C(Nc1cc(Cl)cc(Cl)c1)OCC1(C(=O)NCc2ccccc2Cl)CCOCC1` [(4-{[N-(3,5-dichlorophenyl)carbamoyloxy]methyl}(2H-3,4,5,6-tetrahydropyran-4-yl))-N-[(2-chlorophenyl)methyl]carboxamide], the 50% inhibitory concentration (IC50) is 18.3 µM.

Consider `Cc1c(Cl)cccc1NC(=O)OCC1(C(=O)NCc2ccccc2Cl)CCOCC1` [(4-{[N-(3-chloro-2-methylphenyl)carbamoyloxy]methyl}(2H-3,4,5,6-tetrahydropyran-4-yl))-N-[(2-chlorophenyl)methyl]carboxamide], for which the IC50 is 16.2 µM.

For the compound `Cc1ccc(NC(=O)OCC2(C(=O)NCc3ccccc3Cl)CCOCC2)cc1Cl` [(4-{[N-(3-chloro-4-methylphenyl)carbamoyloxy]methyl}(2H-3,4,5,6-tetrahydropyran-4-yl))-N-[(2-chlorophenyl)methyl]carboxamide], the IC50 was 1.96 µM.

Take `CC(=O)c1ccc(NC(=O)OCC2(C(=O)NCc3ccccc3Cl)CCOCC2)cc1` [(4-{[N-(4-acetylphenyl)carbamoyloxy]methyl}(2H-3,4,5,6-tetrahydropyran-4-yl))-N-[(2-chlorophenyl)methyl]carboxamide]: the IC50 was 4.27 µM.

In the case of `CC(=O)c1ccc(NC(=O)OCC2(C(=O)NCc3ccccc3Cl)CCN(C(=O)CN)CC2)cc1` [(4-{[N-(4-acetylphenyl)carbamoyloxy]methyl}-1-(2-aminoacetyl)(4-piperidyl))-N-[(2-chlorophenyl)methyl]carboxamide], the IC50 is 1.19 µM.

As for `O=C(Nc1ccc(Cl)cc1)OCC1(C(=O)NCc2ccccc2Cl)CCOCC1` [(4-{[N-(4-chlorophenyl)carbamoyloxy]methyl}(2H-3,4,5,6-tetrahydropyran-4-yl))-N-[(2-chlorophenyl)methyl]carboxamide], the half-maximal inhibitory concentration (IC50) was 2.78 µM.

Regarding `CCc1ccc(NC(=O)N[C@H]2CCCC[C@@H]2C(=O)NCc2ccccc2Cl)cc1` [((1S,2S)-2-{[(4-ethylphenyl)amino]carbonylamino}cyclohexyl)-N-[(2-chlorophenyl)methyl]carboxamide], the IC50 came to 16.8 µM.

In the case of `CCc1ccc(NC(=O)OC[C@@H]2CCCN2C(=O)NCc2ccccc2Cl)cc1` [((2S)-2-{[N-(4-ethylphenyl)carbamoyloxy]methyl}pyrrolidinyl)-N-[(2-chlorophenyl)methyl]carboxamide], the IC50 was 0.185 µM.

In the case of `CCc1ccc(NC(=O)OC[C@@H]2C[C@@H](N)CN2C(=O)NCc2ccccc2Cl)cc1` [((5S,3R)-3-amino-5-{[N-(4-ethylphenyl)carbamoyloxy]methyl}pyrrolidinyl)-N-[(2-chlorophenyl)methyl]carboxamide], the IC50 is 1.44 µM.

With `CCc1ccc(NC(=O)N(CCNC(=O)OC(C)(C)C)CC2(C(=O)NCc3ccccc3Cl)CCN(C(=O)CNC(=O)OC(C)(C)C)CC2)cc1` [(tert-butoxy)-N-(2-{N-[(1-{2-[(tert-butoxy)carbonylamino]acetyl}-4-{N-[(2-chlorophenyl)methyl]carbamoyl}(4-piperidyl))methyl][(4-ethylphenyl)amino]carbonylamino}ethyl)carboxamide], the IC50 was 19.5 µM.

With `CCc1ccc(NC(=O)OCC2(C(=O)NCc3ccccc3Br)CCN(C(=O)CN(C)C(=O)OC(C)(C)C)CC2)cc1` [(tert-butoxy)-N-[2-(4-{N-[(2-bromophenyl)methyl]carbamoyl}-4-{[N-(4-ethylphenyl)carbamoyloxy]methyl}piperidyl)-2-oxoethyl]-N-methylcarboxamide], the IC50 came out at 2.86 µM.

Turning to `CCc1ccc(NC(=O)OCC2(C(=O)NCc3ccccc3Cl)CCN(C(=O)C(CO)NC(=O)OC(C)(C)C)CC2)cc1` (centres unmarked) [(tert-butoxy)-N-[2-(4-{N-[(2-chlorophenyl)methyl]carbamoyl}-4-{[N-(4-ethylphenyl)carbamoyloxy]methyl}piperidyl)-1-(hydroxymethyl)-2-oxoethyl]carboxamide], the IC50 stood at 0.661 µM.

For the compound `CCc1ccc(NC(=O)OCC2(C(=O)NCc3ccccc3Cl)CCN(C(=O)C(C)N(C)C(=O)OC(C)(C)C)CC2)cc1` (centres unmarked) [(tert-butoxy)-N-[2-(4-{N-[(2-chlorophenyl)methyl]carbamoyl}-4-{[N-(4-ethylphenyl)carbamoyloxy]methyl}piperidyl)-1-methyl-2-oxoethyl]-N-methylcarboxamide], the IC50 worked out at 6.18 µM.

Turning to `CCc1ccc(NC(=O)OCC2(C(=O)NCc3ccccc3Cl)CCN(C(=O)CNC(=O)OC(C)(C)C)CC2)cc1` [(tert-butoxy)-N-[2-(4-{N-[(2-chlorophenyl)methyl]carbamoyl}-4-{[N-(4-ethylphenyl)carbamoyloxy]methyl}piperidyl)-2-oxoethyl]carboxamide], the IC50 was 0.919 µM.

Turning to `CCc1ccc(NC(=O)OCC2(C(=O)NCc3ccccc3)CCN(C(=O)CNC(=O)OC(C)(C)C)CC2)cc1` [(tert-butoxy)-N-[2-(4-{[N-(4-ethylphenyl)carbamoyloxy]methyl}-4-[N-benzylcarbamoyl]piperidyl)-2-oxoethyl]carboxamide], the IC50 amounted to 11.1 µM.

Regarding `CCc1ccc(NC(=O)OCC2(C(=O)NCc3ccccc3F)CCN(C(=O)CNC(=O)OC(C)(C)C)CC2)cc1` [(tert-butoxy)-N-[2-(4-{[N-(4-ethylphenyl)carbamoyloxy]methyl}-4-{N-[(2-fluorophenyl)methyl]carbamoyl}piperidyl)-2-oxoethyl]carboxamide], the IC50 came to 3.77 µM.

In the case of `CCc1ccc(NC(=O)OCC2(C(=O)NCc3ccccc3C)CCN(C(=O)CNC(=O)OC(C)(C)C)CC2)cc1` [(tert-butoxy)-N-[2-(4-{[N-(4-ethylphenyl)carbamoyloxy]methyl}-4-{N-[(2-methylphenyl)methyl]carbamoyl}piperidyl)-2-oxoethyl]carboxamide], the IC50 came to 0.975 µM.

On to `CCc1ccc(NC(=O)OCCN(CCN(C)C(=O)OC(C)(C)C)C(=O)NCc2ccccc2Cl)cc1` [(tert-butoxy)-N-[2-({[(2-chlorophenyl)methyl]amino}-N-{2-[N-(4-ethylphenyl)carbamoyloxy]ethyl}carbonylamino)ethyl]-N-methylcarboxamide], for which the IC50 was 18.2 µM.

`CCc1ccc(NC(=O)OCC2(C(=O)NCc3ccccc3Cl)CCN(C(=O)CCCNC(=O)OC(C)(C)C)CC2)cc1` [(tert-butoxy)-N-[4-(4-{N-[(2-chlorophenyl)methyl]carbamoyl}-4-{[N-(4-ethylphenyl)carbamoyloxy]methyl}piperidyl)-4-oxobutyl]carboxamide]: the IC50 came to 0.481 µM.

`CCc1ccc(NC(=O)OCC2(C(=O)NCc3ccccn3)CCN(C(=O)CN)CC2)cc1` [({1-(2-aminoacetyl)-4-[N-(2-pyridylmethyl)carbamoyl](4-piperidyl)}methoxy)-N-(4-ethylphenyl)carboxamide]: the IC50 stood at 7.22 µM.

As for `CCc1ccc(NC(=O)OCC2(C(=O)NCc3ncc[nH]3)CCN(C(=O)CN)CC2)cc1` [({1-(2-aminoacetyl)-4-[N-(imidazol-2-ylmethyl)carbamoyl](4-piperidyl)}methoxy)-N-(4-ethylphenyl)carboxamide], the concentration for half-maximal inhibition (IC50) is 18.5 µM.

The values above are taken from patent US8071625B2, “Certain chemical entities, compositions, and methods” (Cytokinetics, Inc., priority 2006, dated 2011).
